From ChEMBL document CHEMBL3822390, “Synthesis, characterization and anti-cancer activity of a peptide nucleolipid bioconjugate” (2016)

Key:
Assay type in all cases: functional
[1] = Cytotoxicity against human RXF393 cells assessed as cell growth at 10 uM after 48 hrs by SRB assay; conditions: RXF 393, 48 h, read-out: Activity
[2] = Cytotoxicity against human RPMI8226 cells assessed as cell growth at 10 uM after 48 hrs by SRB assay; conditions: RPMI-8226, 48 h, read-out: Activity
KM12 = assay: Cytotoxicity against human KM12 cells assessed as cell growth at 10 uM after 48 hrs by SRB assay; conditions: KM12, 48 h, read-out: Activity
CCRF-CEM [3] = assay: Cytotoxicity against human CCRF-CEM cells assessed as cell growth at 10 uM after 48 hrs by SRB assay; conditions: read-out: Activity
NCI-H322M [4] = assay: Cytotoxicity against human NCI-H322M cells assessed as cell growth at 10 uM after 48 hrs by SRB assay; conditions: read-out: Activity
NCI-H226 = assay: Cytotoxicity against human NCI-H226 cells assessed as cell mortality at 10 uM after 48 hrs by SRB assay; conditions: NCI-H226, 48 h
MDA-MB-231 [5] = assay: Cytotoxicity against human MDA-MB-231 cells assessed as cell growth at 10 uM after 48 hrs by SRB assay; conditions: MDA-MB-231, 48 h, read-out: Activity
Malme-3M [6] = assay: Cytotoxicity against human MALME-3M cells assessed as cell growth at 10 uM after 48 hrs by SRB assay; conditions: read-out: Activity
[7] = Cytotoxicity against human BT549 cells assessed as cell growth at 10 uM after 48 hrs by SRB assay; conditions: BT-549, 48 h, read-out: Activity
[8] = Cytotoxicity against human UACC62 cells assessed as cell growth at 10 uM after 48 hrs by SRB assay; conditions: UACC-62, 48 h, read-out: Activity
[9] = Cytotoxicity against human NCI-ADR-RES cells assessed as cell growth at 10 uM after 48 hrs by SRB assay; conditions: read-out: Activity
786-0 [10] = assay: Cytotoxicity against human 786-0 cells assessed as cell growth at 10 uM after 48 hrs by SRB assay; conditions: 786-0, 48 h, read-out: Activity
[11] = Cytotoxicity against human SF295 cells assessed as cell growth at 10 uM after 48 hrs by SRB assay; conditions: SF-295, 48 h, read-out: Activity
[12] = Cytotoxicity against human DU145 cells assessed as cell growth at 10 uM after 48 hrs by SRB assay; conditions: DU-145, 48 h, read-out: Activity
[13] = Cytotoxicity against human SF539 cells assessed as cell growth at 10 uM after 48 hrs by SRB assay; conditions: SF-539, 48 h, read-out: Activity
[14] = Cytotoxicity against human OVCAR8 cells assessed as cell growth at 10 uM after 48 hrs by SRB assay; conditions: OVCAR-8, 48 h, read-out: Activity
[15] = Cytotoxicity against human HL-60(TB) cells assessed as cell growth at 10 uM after 48 hrs by SRB assay; conditions: HL-60, 48 h, read-out: Activity
HT-29 = assay: Cytotoxicity against human HT-29 cells assessed as cell growth at 7.25 uM after 48 hrs by SRB assay; conditions: HT-29, 48 h, read-out: Activity
786-0 [16] = assay: Cytotoxicity against human 786-0 cells assessed as cell growth at 7.25 uM after 48 hrs by SRB assay; conditions: 786-0, 48 h, read-out: Activity
MDA-MB-435 = assay: Cytotoxicity against human MDA-MB-435 cells assessed as cell growth at 7.25 uM after 48 hrs by SRB assay; conditions: MDA-MB-435, 48 h, read-out: Activity
[17] = Cytotoxicity against human SNB75 cells assessed as cell growth at 7.25 uM after 48 hrs by SRB assay; conditions: SNB-75, 48 h, read-out: Activity
[18] = Cytotoxicity against human SF268 cells assessed as cell growth at 7.25 uM after 48 hrs by SRB assay; conditions: SF-268, 48 h, read-out: Activity
SK-MEL-5 = assay: Cytotoxicity against human SK-MEL-5 cells assessed as cell growth at 7.25 uM after 48 hrs by SRB assay; conditions: SK-MEL-5, 48 h, read-out: Activity
[19] = Cytotoxicity against human HCT15 cells assessed as cell growth at 7.25 uM after 48 hrs by SRB assay; conditions: HCT-15, 48 h, read-out: Activity
NCI-H460 = assay: Cytotoxicity against human NCI-H460 cells assessed as cell growth at 7.25 uM after 48 hrs by SRB assay; conditions: NCI-H460, 48 h, read-out: Activity
[20] = Cytotoxicity against human SNB19 cells assessed as cell growth at 2.13 uM after 48 hrs by SRB assay; conditions: SNB-19, 48 h, read-out: Activity
NCI-H522 = assay: Cytotoxicity against human NCI-H522 cells assessed as cell growth at 2.13 uM after 48 hrs by SRB assay; conditions: NCI-H522, 48 h, read-out: Activity
[21] = Cytotoxicity against human TK10 cells assessed as cell growth at 2.13 uM after 48 hrs by SRB assay; conditions: TK-10, 48 h, read-out: Activity
MDA-MB-231 [22] = assay: Cytotoxicity against human MDA-MB-231 cells assessed as cell growth at 2.13 uM after 48 hrs by SRB assay; conditions: MDA-MB-231, 48 h, read-out: Activity
U-251 = assay: Cytotoxicity against human U251 cells assessed as cell growth at 2.13 uM after 48 hrs by SRB assay; conditions: U-251, 48 h, read-out: Activity
SN12C = assay: Cytotoxicity against human SN12C cells assessed as cell growth at 2.13 uM after 48 hrs by SRB assay; conditions: read-out: Activity
[23] = Cytotoxicity against human OVCAR3 cells assessed as cell growth at 2.13 uM after 48 hrs by SRB assay; conditions: OVCAR-3, 48 h, read-out: Activity
ACHN = assay: Cytotoxicity against human ACHN cells assessed as cell growth at 2.13 uM after 48 hrs by SRB assay; conditions: read-out: Activity
NCI-H322M [24] = assay: Cytotoxicity against human NCI-H322M cells assessed as cell growth at 2.13 uM after 48 hrs by SRB assay; conditions: read-out: Activity
[25] = Cytotoxicity against human OVCAR5 cells assessed as cell growth at 2.13 uM after 48 hrs by SRB assay; conditions: OVCAR-5, 48 h, read-out: Activity
CCRF-CEM [26] = assay: Cytotoxicity against human CCRF-CEM cells assessed as cell growth at 2.13 uM after 48 hrs by SRB assay; conditions: read-out: Activity
[27] = Cytotoxicity against human OVCAR8 cells assessed as cell growth at 2.13 uM after 48 hrs by SRB assay; conditions: OVCAR-8, 48 h, read-out: Activity
M14 = assay: Cytotoxicity against human M14 cells assessed as cell growth at 2.13 uM after 48 hrs by SRB assay; conditions: M14, 48 h, read-out: Activity
[28] = Cytotoxicity against human UO31 cells assessed as cell growth at 2.13 uM after 48 hrs by SRB assay; conditions: UO-31, 48 h, read-out: Activity
Malme-3M [29] = assay: Cytotoxicity against human MALME-3M cells assessed as cell growth at 2.13 uM after 48 hrs by SRB assay; conditions: read-out: Activity

CC(C)C[C@H](NC(=O)[C@H](CCCCN)NC(=O)[C@H](C)NC(=O)[C@H](CC(C)C)NC(=O)[C@H](CCCCN)NC(=O)[C@H](CCCCN)NC(=O)[C@H](C)NC(=O)[C@H](CC(C)C)NC(=O)[C@H](CCCCN)NC(=O)[C@H](C)NC(=O)[C@H](CC(C)C)NC(=O)[C@H](CCCCN)NC(=O)[C@@H](N)CC(=O)O)C(=O)N[C@@H](C)C(=O)N[C@@H](CCCCN)C(=O)N[C@@H](C)C(=O)N[C@@H](CCCCN)C(N)=O
growth at 10 µM [1]: 110% | growth at 10 µM [2]: 104% | growth at 10 µM (KM12): 103% | growth at 10 µM (CCRF-CEM [3]): 108% | growth at 10 µM (NCI-H322M [4]): 110% | mortality at 10 µM (NCI-H226): 1% | growth at 10 µM (MDA-MB-231 [5]): 109% | growth at 10 µM (Malme-3M [6]): 107% | growth at 10 µM [7]: 105% | growth at 10 µM [8]: 104% | growth at 10 µM [9]: 105% | growth at 10 µM (786-0 [10]): 105% | growth at 10 µM [11]: 103% | growth at 10 µM [12]: 109% | growth at 10 µM [13]: 98% | growth at 10 µM [14]: 101% | growth at 10 µM [15]: 99.5%

CCCCCCCCCCCCCCCC(=O)NCCCC[C@H](NC(=O)[C@H](C)NC(=O)[C@H](CCCCN)NC(=O)[C@H](C)NC(=O)[C@H](CC(C)C)NC(=O)[C@H](CCCCN)NC(=O)[C@H](C)NC(=O)[C@H](CC(C)C)NC(=O)[C@H](CCCCN)NC(=O)[C@H](CCCCN)NC(=O)[C@H](C)NC(=O)[C@H](CC(C)C)NC(=O)[C@H](CCCCN)NC(=O)[C@H](C)NC(=O)[C@H](CC(C)C)NC(=O)[C@H](CCCCN)NC(=O)[C@@H](N)CC(=O)O)C(N)=O
growth at 7.25 µM (HT-29): 92.4% | growth at 7.25 µM (786-0 [16]): 107% | growth at 7.25 µM (MDA-MB-435): 113% | growth at 7.25 µM [17]: 93.6% | growth at 7.25 µM [18]: 105% | growth at 7.25 µM (SK-MEL-5): 102% | growth at 7.25 µM [19]: 109% | growth at 7.25 µM (NCI-H460): 107%

CCCCCCCCCCCCCCCCNCCO[C@H]1C[C@H](n2cc(C)c(=O)[nH]c2=O)O[C@@H]1C(=O)NCCCC[C@H](NC(=O)[C@H](C)NC(=O)[C@H](CCCCN)NC(=O)[C@H](C)NC(=O)[C@H](CC(C)C)NC(=O)[C@H](CCCCN)NC(=O)[C@H](C)NC(=O)[C@H](CC(C)C)NC(=O)[C@H](CCCCN)NC(=O)[C@H](CCCCN)NC(=O)[C@H](C)NC(=O)[C@H](CC(C)C)NC(=O)[C@H](CCCCN)NC(=O)[C@H](C)NC(=O)[C@H](CC(C)C)NC(=O)[C@H](CCCCN)NC(=O)[C@@H](N)CC(=O)O)C(N)=O
growth at 2.13 µM [20]: 106% | growth at 2.13 µM (NCI-H522): 88.8% | growth at 2.13 µM [21]: 95.9% | growth at 2.13 µM (MDA-MB-231 [22]): 101% | growth at 2.13 µM (U-251): 92.7% | growth at 2.13 µM (SN12C): 103% | growth at 2.13 µM [23]: 107% | growth at 2.13 µM (ACHN): 106% | growth at 2.13 µM (NCI-H322M [24]): 110% | growth at 2.13 µM [25]: 105% | growth at 2.13 µM (CCRF-CEM [26]): 108% | growth at 2.13 µM [27]: 96.8% | growth at 2.13 µM (M14): 98.5% | growth at 2.13 µM [28]: 81.2% | growth at 2.13 µM (Malme-3M [29]): 104%
